Experimental data published in patent US6737383B1, “Herbicidal oxadiazolidines” (priority 1999, dated 2004).

Tests used:
corn = assay: Test B pre/postemergence corn; assay type: in vivo, Zea mays
Procedure, shortened: (§1)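 Response is a visual 0-to-10 score relative to untreated plants, where 0 means no effect and 10 means complete control, taken twelve to sixteen days after application. Treatments went onto soil at planting and onto foliage of 1- to 4-leaf plants, using a surfactant-containing non-phytotoxic solvent.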

bedstraw = assay: Test B pre/postemergence bedstraw; assay type: in vivo, Galium aparine
Procedure, shortened: as §1

velvetleaf = assay: Test B pre/postemergence velvetleaf; assay type: in vivo, Abutilon theophrasti
Procedure, shortened: as §1

duck salad = assay: Test B flood test duck salad; assay type: in vivo, Heteranthera limosa
Procedure, shortened: (§2)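 Plants were grown to the 2-leaf stage before treatment with test chemical, then held in a greenhouse for twelve to sixteen days. Injury was visually rated against untreated controls on a 0–10 scale, where 0 is no effect and 10 is complete control.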

purple nutsedge = assay: Test B pre/postemergence purple nutsedge; assay type: in vivo, Cyperus rotundus
Procedure, shortened: as §1

wheat = assay: Test B pre/postemergence wheat; assay type: in vivo, Triticum aestivum
Procedure, shortened: as §1

blackgrass = assay: Test B pre/postemergence blackgrass; assay type: in vivo, Alopecurus myosuroides
Procedure, shortened: as §1

smallflower flatsedge = assay: Test B flood test smallflower flatsedge; assay type: in vivo, Cyperus difformis
Procedure, shortened: as §2

cocklebur = assay: Test B pre/postemergence cocklebur; assay type: in vivo, Xanthium strumarium
Procedure, shortened: as §1

bamyardgrass = assay: Test B flood test barnyardgrass; assay type: in vivo, Echinochloa crus-galli
Procedure, shortened: as §2

morningglory = assay: Test B pre/postemergence morningglory; assay type: in vivo, Ipomoea hederacea
Procedure, shortened: as §1

rice = assay: Test B flood test rice; assay type: in vivo, Oryza sativa
Procedure, shortened: as §2

wild oat = assay: Test B pre/postemergence wild oat; assay type: in vivo, Avena fatua
Procedure, shortened: as §1

surinam grass = assay: Test B pre/postemergence surinam grass; assay type: in vivo, Brachiaria decumbens
Procedure, shortened: as §1

giant foxtail = assay: Test B pre/postemergence giant foxtail; assay type: in vivo, Setaria faberii
Procedure, shortened: as §1

crabgrass = assay: Test B pre/postemergence crabgrass; assay type: in vivo, Digitaria sanguinalis
Procedure, shortened: as §1

[1] = Preemergence, Rate 62 g/ha, scale of 0 to 10 where 0 is no effect and 10 is complete control
[2] = Preemergence, Rate 125 g/ha, 0 is no effect, 10 is complete control
[3] = Preemergence, Rate 250 g/ha, scale 0 to 10, 0 is no effect, 10 is complete control
[4] = Preemergence, Rate 500 g/ha, scale of 0 to 10 where 0 is no effect and 10 is complete control
[5] = Rate 62 g/ha, Postemergence, scale of 0 to 10 where 0 is no effect and 10 is complete control
[6] = Rate 125 g/ha, Postemergence, scale 0 to 10
[7] = Rate 500 g/ha, Postemergence, scale 0 to 10
[8] = Rate 62 g/ha, headed Pre-emergence (flood test species), scale 0 to 10 (0 no effect, 10 complete control)
[9] = Rate 125 g/ha, Pre-emergence, flood test species, scale 0 to 10 where 0 is no effect and 10 is complete control
[10] = Rate 250 g/ha, Pre-emergence, flood-test species, scale 0 to 10, 0 is no effect, 10 is complete control
[11] = Rate 500 g/ha, headed Pre-emergence (flood test species), scale 0 to 10 (0 no effect, 10 complete control)

Cc1ccccc1-n1c(=O)on(C(=O)N(c2ccccc2F)C(C)C)c1=O [Compound 204]
Corn plant response rating (corn; [1]): 0
Corn plant response rating (0 to 10 scale) (corn; [2]): 0
Corn plant response rating (corn; [3]): 0
Plant response rating, Corn (corn; [4]): 2
Corn plant response rating (corn; [5]): 0
Corn plant response rating (corn; [6]): 0
Plant response rating (0 to 10; 0 is no effect, 10 is complete control), Corn (corn; Rate 250 g/ha, Postemergence): 0
Corn plant response rating (corn; [7]): 0
Bedstraw plant response rating (bedstraw; [1]): 0
Bedstraw plant response rating (0 to 10 scale) (bedstraw; [2]): 0
Bedstraw plant response rating (bedstraw; [3]): 0
Plant response rating, Bedstraw (bedstraw; [4]): 0
Bedstraw plant response rating (bedstraw; [5]): 0
Bedstraw plant response rating (bedstraw; [6]): 0
Plant response rating (0 to 10; 0 is no effect, 10 is complete control), Bedstraw (bedstraw; Rate 250 g/ha, Postemergence): 6
Bedstraw plant response rating (bedstraw; [7]): 7
Velvetleaf plant response rating (velvetleaf; [1]): 0
Velvetleaf plant response rating (velvetleaf; [3]): 0
Plant response rating, Velvetleaf (velvetleaf; [4]): 0
Velvetleaf plant response rating (velvetleaf; [5]): 0
Velvetleaf plant response rating (velvetleaf; [6]): 1
Plant response rating (0 to 10; 0 is no effect, 10 is complete control), Velvetleaf (velvetleaf; Rate 250 g/ha, Postemergence): 1
Ducksalad plant response rating (duck salad; [8]): 0
Ducksalad plant response rating (duck salad; [9]): 0
Ducksalad plant response rating (duck salad; [10]): 0
Plant response rating, Ducksalad (duck salad; [11]): 0
Nutsedge plant response rating (purple nutsedge; [1]): 0
Nutsedge plant response rating (0 to 10 scale) (purple nutsedge; [2]): 0
Nutsedge plant response rating (purple nutsedge; [3]): 0
Plant response rating, Nutsedge (purple nutsedge; [4]): 0
Nutsedge plant response rating (purple nutsedge; [5]): 0
Nutsedge plant response rating (purple nutsedge; [6]): 0
Plant response rating (0 to 10; 0 is no effect, 10 is complete control), Nutsedge (purple nutsedge; Rate 250 g/ha, Postemergence): 0
Nutsedge plant response rating (purple nutsedge; [7]): 0
Wheat plant response rating (wheat; [1]): 0
Wheat plant response rating (wheat; [3]): 0
Plant response rating, Wheat (wheat; [4]): 2
Wheat plant response rating (wheat; [5]): 0
Wheat plant response rating (wheat; [6]): 0
Plant response rating (0 to 10; 0 is no effect, 10 is complete control), Wheat (wheat; Rate 250 g/ha, Postemergence): 0
Blackgrass plant response rating (blackgrass; [1]): 0
Blackgrass plant response rating (0 to 10 scale) (blackgrass; [2]): 2
Blackgrass plant response rating (blackgrass; [3]): 2
Plant response rating, Blackgrass (blackgrass; [4]): 5
Blackgrass plant response rating (blackgrass; [5]): 0
Blackgrass plant response rating (blackgrass; [6]): 2
Plant response rating (0 to 10; 0 is no effect, 10 is complete control), Blackgrass (blackgrass; Rate 250 g/ha, Postemergence): 3
Blackgrass plant response rating (blackgrass; [7]): 7
S. Flatsedge plant response rating (smallflower flatsedge; [8]): 0
S. Flatsedge plant response rating (smallflower flatsedge; [9]): 0
S. Flatsedge plant response rating (smallflower flatsedge; [10]): 0
S. Flatsedge plant response rating (smallflower flatsedge; Rate 500 g/ha, Pre-emergence, flood test species, scale 0 to 10 (0 no effect, 10 complete control)): 0
Cocklebur plant response rating (cocklebur; [1]): 0
Cocklebur plant response rating (0 to 10 scale) (cocklebur; [2]): 0
Cocklebur plant response rating (cocklebur; [3]): 0
Plant response rating, Cocklebur (cocklebur; [4]): 0
Cocklebur plant response rating (cocklebur; [5]): 0
Cocklebur plant response rating (cocklebur; [6]): 0
Plant response rating (0 to 10; 0 is no effect, 10 is complete control), Cocklebur (cocklebur; Rate 250 g/ha, Postemergence): 1
Cocklebur plant response rating (cocklebur; [7]): 1
Barnyardgrass plant response rating (bamyardgrass; [8]): 0
Barnyardgrass plant response rating (bamyardgrass; [9]): 0
Barnyardgrass plant response rating (bamyardgrass; [10]): 0
Plant response rating, Barnyardgrass (bamyardgrass; [11]): 0
Morningglory plant response rating (morningglory; [1]): 0
Morningglory plant response rating (0 to 10 scale) (morningglory; [2]): 0
Morningglory plant response rating (morningglory; [3]): 0
Plant response rating, Morningglory (morningglory; [4]): 0
Morningglory plant response rating (morningglory; [5]): 3
Morningglory plant response rating (morningglory; [6]): 3
Plant response rating (0 to 10; 0 is no effect, 10 is complete control), Morningglory (morningglory; Rate 250 g/ha, Postemergence): 3
Morningglory plant response rating (morningglory; [7]): 8
Rice plant response rating (rice; [8]): 0
Rice plant response rating (rice; [9]): 0
Rice plant response rating (rice; [10]): 0
Plant response rating, Rice (rice; [11]): 0
Wild oats plant response rating (wild oat; [1]): 0
Wild oats plant response rating (wild oat; [3]): 3
Plant response rating, Wild oats (wild oat; [4]): 6
Wild oats plant response rating (wild oat; [5]): 0
Wild oats plant response rating (wild oat; [6]): 0
Plant response rating (0 to 10; 0 is no effect, 10 is complete control), Wild oats (wild oat; Rate 250 g/ha, Postemergence): 0
B. signalgrass plant response rating (surinam grass; [1]): 0
B. signalgrass plant response rating (0 to 10 scale) (surinam grass; [2]): 0
B. signalgrass plant response rating (surinam grass; [3]): 0
Plant response rating, B. signalgrass (surinam grass; [4]): 2
B. signalgrass plant response rating (surinam grass; [5]): 0
B. signalgrass plant response rating (surinam grass; Rate 125 g/ha, Postemergence, scale 0 (no effect) to 10 (complete control)): 0
Plant response rating, B. signalgrass (surinam grass; Rate 250 g/ha, Postemergence, scale 0 to 10, 0 is no effect, 10 is complete control): 0
B. signalgrass plant response rating (surinam grass; Rate 500 g/ha, Postemergence, scale 0 to 10, 0 no effect, 10 complete control): 0
Giant foxtail plant response rating (giant foxtail; [1]): 7
Giant foxtail plant response rating (0 to 10 scale) (giant foxtail; [2]): 9
Giant foxtail plant response rating (giant foxtail; [3]): 10
Plant response rating, Giant foxtail (giant foxtail; [4]): 10
Giant foxtail plant response rating (giant foxtail; [5]): 0
Giant foxtail plant response rating (giant foxtail; [6]): 0
Plant response rating (0 to 10; 0 is no effect, 10 is complete control), Giant foxtail (giant foxtail; Rate 250 g/ha, Postemergence): 0
Giant foxtail plant response rating (giant foxtail; [7]): 3
Crabgrass plant response rating (crabgrass; [1]): 6
Crabgrass plant response rating (0 to 10 scale) (crabgrass; [2]): 8
Crabgrass plant response rating (crabgrass; [3]): 8
Plant response rating, Crabgrass (crabgrass; [4]): 8
Crabgrass plant response rating (crabgrass; [5]): 0
Crabgrass plant response rating (crabgrass; [6]): 0
Plant response rating (0 to 10; 0 is no effect, 10 is complete control), Crabgrass (crabgrass; Rate 250 g/ha, Postemergence): 2
Crabgrass plant response rating (crabgrass; [7]): 5
